Values after ≈ are worked out from the molar mass of the structure shown. Read-outs that look alike come from different tables or passages of the source.
Tests used:
Format in all cases: cell-based
M. smegmatis [1] = tested on: M. smegmatis
M. smegmatis [2] = assay: Broth checkerboard MIC, synergy of LysB with anti-TB drugs; conditions: for MIC: Mycolicibacterium smegmatis
M. bovis BCG = assay: microbe, parasite or virus in culture; conditions: for FIC index: M. bovis BCG (Dubos), drug in combination with LysB, <0.5 indicates synergy; for MIC: Mycobacterium tuberculosis variant bovis BCG, BCG

| SMILES | Log10 CFU reduction (M. smegmatis [1]; M. smegmatis, 24 hrs, Ethambutol group) [Log10 CFU] | FIC index (M. smegmatis [2]) | MIC (M. smegmatis [2]) [µg/mL] | FIC index (M. bovis BCG) | MIC (M. bovis BCG) [µg/mL] | Log10 CFU reduction (M. smegmatis [1]; M. smegmatis, 24 hrs, INH group) [Log10 CFU] | Log10 CFU reduction (M. smegmatis [1]) [Log10 CFU] |
| --- | --- | --- | --- | --- | --- | --- | --- |
| CC[C@@H](CO)NCCN[C@@H](CC)CO [Ethambutol] | <1 | 0.06 | 2 | 0.15 | 16 (≈ 78.3 µM) |  |  |
| NNC(=O)c1ccncc1 [INH, Isoniazid] |  | 0.13 | 8 | 0.47 | 0.03 (≈ 0.219 µM) | <1 |  |
| CO[C@H]1/C=C/O[C@@]2(C)Oc3c(C)c(O)c4c(O)c(c(/C=N/N5CCN(C)CC5)c(O)c4c3C2=O)NC(=O)/C(C)=C\C=C\[C@H](C)[C@H](O)[C@@H](C)[C@@H](O)[C@@H](C)[C@H](OC(C)=O)[C@@H]1C [Rifampicin] |  | 0.06 | 4 | 0.37 | 0.004 (≈ 0.00486 µM) |  | <1 |
